In ChEMBL document CHEMBL1201862, “PubChem BioAssay data set” (2004):
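These data come from cells grown in 96-well plates and exposed to compound for 48 hours at five concentrations. GI50 = concentration required for 50% inhibition of growth.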 Activity calls are given as the source filed them. Cut-off read from the data, not from the text of the source: active = GI50 up to about 1.1 µM and inactive = higher.

Assays:
Assay in all cases: NCI-60 cell line screen, 48 h
[1] = tested on: 786-0
[2] = tested on: A498
[3] = tested on: A549
[4] = tested on: ACHN
[5] = tested on: BT-549
[6] = tested on: CAKI-1
[7] = tested on: CCRF-CEM
[8] = tested on: COLO 205
[9] = tested on: DU-145
[10] = tested on: HCC 2998
[11] = tested on: HCT-116
[12] = tested on: HCT-15
[13] = tested on: HOP-62
[14] = tested on: HOP-92
[15] = tested on: HT-29
[16] = tested on: Hs-578T
[17] = tested on: IGROV-1
[18] = tested on: K562
[19] = tested on: KM12
[20] = tested on: M14
[21] = tested on: MCF7
[22] = tested on: MDA-MB-231
[23] = tested on: MDA-MB-435
[24] = tested on: MDA-N
[25] = tested on: MOLT-4
[26] = tested on: Malme-3M
[27] = tested on: NCI-H226
[28] = tested on: NCI-H23
[29] = tested on: NCI-H460
[30] = tested on: NCI-H522
[31] = tested on: NCI/ADR-RES
[32] = tested on: OVCAR-3
[33] = tested on: OVCAR-4
[34] = tested on: OVCAR-5
[35] = tested on: OVCAR-8
[36] = tested on: PC-3
[37] = tested on: RPMI-8226
[38] = tested on: RXF 393
[39] = tested on: SF-268
[40] = tested on: SF-295
[41] = tested on: SF-539
[42] = tested on: SK-MEL-28
[43] = tested on: SK-MEL-2
[44] = tested on: SK-MEL-5
[45] = tested on: SK-OV-3
[46] = tested on: SN12C
[47] = tested on: SNB-75
[48] = tested on: SR
[49] = tested on: SW-620
[50] = tested on: T47D
[51] = tested on: TK-10
[52] = tested on: U-251
[53] = tested on: UACC-257
[54] = tested on: UACC-62
[55] = tested on: UO-31

## CC(=O)N1N=C(c2ccc3ccccc3c2O)CC1c1ccc(N(C)C)cc1 (stereo not given)
[1]
  GI50: > 100 µM (inactive)
[2]
  GI50: > 100 µM (inactive)
[3]
  GI50: > 100 µM (inactive)
[4]
  GI50: > 100 µM (inactive)
[5]
  GI50: > 100 µM (inactive)
[6]
  GI50: > 100 µM (inactive)
[7]
  GI50: > 100 µM (inactive)
[8]
  GI50: > 100 µM (inactive)
[9]
  GI50: > 100 µM (inactive)
[10]
  GI50: > 100 µM (inactive)
[11]
  GI50: > 100 µM (inactive)
[12]
  GI50: > 100 µM
[13]
  GI50: > 100 µM (inactive)
[14]
  GI50: > 100 µM (inactive)
[15]
  GI50: > 100 µM (inactive)
[16]
  GI50: > 100 µM (inactive)
[17]
  GI50: > 100 µM (inactive)
[18]
  GI50: > 100 µM (inactive)
[19]
  GI50: > 100 µM (inactive)
[20]
  GI50: > 100 µM (inactive)
[21]
  GI50: > 100 µM (inactive)
[22]
  GI50: > 100 µM (inactive)
[23]
  GI50: > 100 µM (inactive)
[24]
  GI50: > 100 µM (inactive)
[25]
  GI50: > 100 µM (inactive)
[26]
  GI50: > 100 µM (inactive)
[27]
  GI50: > 100 µM (inactive)
[28]
  GI50: > 100 µM (inactive)
[29]
  GI50: > 100 µM (inactive)
[30]
  GI50: > 100 µM (inactive)
[31]
  GI50: > 100 µM (inactive)
[32]
  GI50: > 100 µM (inactive)
[33]
  GI50: > 100 µM (inactive)
[34]
  GI50: > 100 µM (inactive)
[35]
  GI50: > 100 µM (inactive)
[36]
  GI50: > 100 µM (inactive)
[37]
  GI50: > 100 µM (inactive)
[38]
  GI50: > 100 µM (inactive)
[39]
  GI50: > 100 µM (inactive)
[40]
  GI50: > 100 µM (inactive)
[41]
  GI50: > 100 µM (inactive)
[42]
  GI50: > 100 µM (inactive)
[43]
  GI50: > 100 µM (inactive)
[44]
  GI50: > 100 µM (inactive)
[45]
  GI50: > 100 µM (inactive)
[46]
  GI50: > 100 µM (inactive)
[47]
  GI50: > 100 µM (inactive)
[48]
  GI50: 10.9 µM (inactive)
[49]
  GI50: > 100 µM (inactive)
[50]
  GI50: > 100 µM (inactive)
[51]
  GI50: > 100 µM (inactive)
[52]
  GI50: > 100 µM (inactive)
[53]
  GI50: > 100 µM (inactive)
[54]
  GI50: > 100 µM (inactive)
[55]
  GI50: > 100 µM (inactive)
